The record followed here is patent publication US11708344B2, “Flavone derivatives for the treatment and prophylaxis of hepatitis B virus disease” (Hoffmann-La Roche Inc., priority 2018, dated 2023).

SMILES strings stand for the structures. Read-outs that look alike come from different tables or passages of the source.

Data set [1] has as its system HBeAg (surrogate marker for cccDNA) in HepDES19 cells. The data set is described as follows: Engineered HepDES19 primary screen assay (HBeAg ELISA). The class given is cell-based, HBV. A digest of the protocol: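 HepDES19 cells were induced by Tet withdrawal for 8 days, then treated with half-log compound dilutions (1% DMSO final) for 5 days at 37 °C. HBeAg was measured by ELISA as the cccDNA surrogate, viability by CCK-8, and IC50 from a 4-parameter logistic fit.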

Data set [2] can be described thus: Human microsome stability assay. The class given is in vitro ADME. The conditions noted are these: human liver microsomes, 1 μM test compound, 0.5 mg/mL microsomal protein, 37° C., pH 7.4, 0-30 minutes. Here is the method:
The human microsomal stability assay is used for early assessment of metabolic stability of a test compound in human liver microsomes.
Human liver microsomes (Cat. NO.: 452117, Corning, USA; Cat. NO.: H2610, Xenotech, USA) were preincubated with test compound for 10 minutes at 37° C. in 100 mM potassium phosphate buffer, pH 7.4. The reactions were initiated by adding NADPH regenerating system. The final incubation mixtures contained 1 μM test compound, 0.5 mg/mL liver microsomal protein, 1 mM MgCl2, 1 mM NADP, 1 unit/mL isocitric dehydrogenase and 6 mM isocitric acid in 100 mM potassium phosphate buffer, pH 7.4. After incubation times of 0, 3, 6, 9, 15 and 30 minutes at 37° C., 300 μL of cold ACN (including internal standard) was added to 100 μL incubation mixture to terminate the reaction. Following precipitation and centrifugation, the amount of compound remaining in the samples was determined by LC-MS/MS. Controls of no NADPH regenerating system at zero and 30 minutes were also prepared and analyzed.

Setting [3] is: Hepatitis B virus, HepDES19, 120 h, read-out: IC50 (HBeAg level, HepDES19 primary screen assay), HepDES19 cells, 5 days compound incubation, HBeAg ELISA.

As for `O=C(O)[C@H]1CCCN1C(=O)COc1cc(C(F)(F)F)ccc1-c1cc(=O)c2cccc(Cl)c2o1` [Example A081, (2R)-1-[2-[2-(8-chloro-4-oxo-chromen-2-yl)-5-(trifluoromethyl)phenoxy]acetyl]pyrrolidine-2-carboxylic acid], the IC50 in data set [1] (read-out: IC50 (HBeAg level, HepDES19 primary screen assay), HepDES19 cells, 5 days compound incubation, HBeAg ELISA) came to 260 nM. Besides, the “Clearance of Human microsome” value in data set [2] is given as 6.15 mL/min/kg.
Consider `COc1cc(OCCC(=O)NS(=O)(=O)C2CC2)c(-c2cc(=O)c3cccc(Cl)c3o2)cc1OC` [Example A085, 3-[2-(8-chloro-4-oxo-chromen-2-yl)-4,5-dimethoxy-phenoxy]-N-cyclopropylsulfonyl-propanamide], for which the IC50 in data set [1] (setting [3]) was found to be 4920 nM. Further, in data set [2], the “Clearance of Human microsome” value was found to be 6.15 mL/min/kg.
As to `O=C(COc1cc(C(F)(F)F)ccc1-c1cc(=O)c2cccc(Cl)c2o1)NCCO` [Example A086, 2-[2-(8-chloro-4-oxo-chromen-2-yl)-5-(trifluoromethyl)phenoxy]-N-(2-hydroxyethyl)acetamide], in data set [1] (setting [3]), the IC50 stood at 1000 nM. Moreover, the “Clearance of Human microsome” value in data set [2] is reported as 9.68 mL/min/kg.
Consider `Cc1cc(-c2cc(=O)c3cccc(Cl)c3o2)c(OCC(=O)N2CC[C@H](O)C2)cc1Br` [Example A088, 2-[4-bromo-2-[2-[(3S)-3-hydroxypyrrolidin-1-yl]-2-oxo-ethoxy]-5-methyl-phenyl]-8-chloro-chromen-4-one], for which the IC50 in data set [1] (setting [3]) stood at 1110 nM. In addition, the “Clearance of Human microsome” value in data set [2] was found to be 7.09 mL/min/kg.
The corresponding values for `Cc1cc(-c2cc(=O)c3cccc(Cl)c3o2)c(OCC(=O)N2CC[C@@H](O)C2)cc1Br` [Example A089, 2-[4-bromo-2-[2-[(3R)-3-hydroxypyrrolidin-1-yl]-2-oxo-ethoxy]-5-methyl-phenyl]-8-chloro-chromen-4-one] are 11900 nM and 6.69 mL/min/kg.
The like results for `COc1cc(OCC(=O)NS(=O)(=O)C2CC2)c(-c2cc(=O)c3cccc(Cl)c3o2)cc1OC` [Example A091, 2-[2-(8-chloro-4-oxo-chromen-2-yl)-4,5-dimethoxy-phenoxy]-N-cyclopropylsulfonyl-acetamide] were, in that order, 888 nM and 6.15 mL/min/kg.
As for `Cc1ccc(-c2cc(=O)c3cccc(Cl)c3o2)c(OCC(=O)N2CCC[C@H]2C(=O)NS(C)(=O)=O)c1` [Example A093, (2S)-1-[2-[2-(8-chloro-4-oxo-chromen-2-yl)-5-methyl-phenoxy]acetyl]-N-methylsulfonyl-pyrrolidine-2-carboxamide], in data set [1] (setting [3]), the IC50 was 1320 nM. Also, the “Clearance of Human microsome” value in data set [2] is reported as 6.15 mL/min/kg.
The like results for `Cc1ccc(-c2cc(=O)c3cccc(Cl)c3o2)c(OCC(=O)N2CCC[C@@H]2C(=O)NS(C)(=O)=O)c1` [Example A094, (2R)-1-[2-[2-(8-chloro-4-oxo-chromen-2-yl)-5-methyl-phenoxy]acetyl]-N-methylsulfonyl-pyrrolidine-2-carboxamide] were, in that order, 858 nM and 6.15 mL/min/kg.
The corresponding values for `N[C@@H](COc1cc(C(F)(F)F)ccc1-c1cc(=O)c2cccc(Cl)c2o1)C(=O)O` [Example A095, (2S)-2-amino-3-[2-(8-chloro-4-oxo-chromen-2-yl)-5-(trifluoromethyl)phenoxy]propanoic acid] are 3290 nM and 9.59 mL/min/kg.
Regarding `Cc1cc(Br)c(OC2CC(C(=O)O)C2)c(-c2cc(=O)c3cccc(Cl)c3o2)c1` (centres unmarked) [Example B009, 3-[2-bromo-6-(8-chloro-4-oxo-chromen-2-yl)-4-methyl-phenoxy]cyclobutanecarboxylic acid], the IC50 in data set [1] (setting [3]) came out at 5980 nM. The “Clearance of Human microsome” value in data set [2] is on record as 6.19 mL/min/kg.
The corresponding values for `Cc1ccc(O[C@H]2C[C@@H](C(=O)O)C2)c(-c2cc(=O)c3cccc(Cl)c3o2)c1` [Example B016, Cis-3-[2-(8-chloro-4-oxo-chromen-2-yl)-4-methyl-phenoxy]cyclobutanecarboxylic acid] are 3100 nM and 6.15 mL/min/kg.
The like results for `CCc1ccc(-c2cc(=O)c3cccc(Cl)c3o2)c(O[C@H]2C[C@H](C(=O)O)C2)c1` [Example B019-B, Trans-3-[2-(8-chloro-4-oxo-chromen-2-yl)-5-ethyl-phenoxy]cyclobutanecarboxylic acid] were, in that order, 3630 nM and 8.92 mL/min/kg.
For the compound `CC(C)c1ccc(-c2cc(=O)c3cccc(Cl)c3o2)c(O[C@H]2C[C@H](C(=O)O)C2)c1` [Example B020-B, Trans-3-[2-(8-chloro-4-oxo-chromen-2-yl)-5-isopropyl-phenoxy]cyclobutanecarboxylic acid], the IC50 in data set [1] (setting [3]) is 9440 nM. Further, the “Clearance of Human microsome” value in data set [2] is 8.46 mL/min/kg.
The corresponding values for `COc1ccc(O[C@H]2C[C@H](C(=O)O)C2)c(-c2cc(=O)c3cccc(Cl)c3o2)c1` [Example B021, Trans-3-[2-(8-chloro-4-oxo-chromen-2-yl)-4-methoxy-phenoxy]cyclobutanecarboxylic acid] are 3060 nM and 6.15 mL/min/kg.
The like results for `O=c1cc(-c2ccccc2O[C@H]2C[C@H](C(=O)O)C2)oc2c(Br)cccc12` [Example B022-B, Trans-3-[2-(8-bromo-4-oxo-chromen-2-yl)phenoxy]cyclobutanecarboxylic acid] were, in that order, 141 nM and 6.15 mL/min/kg.
The corresponding values for `O=c1cc(-c2cc3c(cc2O[C@H]2C[C@H](C(=O)O)C2)CCO3)oc2c(Cl)cccc12` [Example B023, Trans-3-[[6-(8-chloro-4-oxo-chromen-2-yl)-2,3-dihydrobenzofuran-5-yl]oxy]cyclobutanecarboxylic acid] are 3390 nM and 6.15 mL/min/kg.
`COc1ccc(OC[C@H]2C[C@H](C(=O)O)C2)c(-c2cc(=O)c3cccc(Cl)c3o2)c1` [Example B027-B]: the IC50 in data set [1] (setting [3]) worked out at 11000 nM. The “Clearance of Human microsome” value in data set [2] was found to be 6.15 mL/min/kg.
On to `O=c1cc(-c2ncc(Br)cc2O[C@H]2C[C@H](C(=O)O)C2)oc2c(Cl)cccc12` [Example B029, Trans-3-[[5-bromo-2-(8-chloro-4-oxo-chromen-2-yl)-3-pyridyl]oxy]cyclobutanecarboxylic acid], for which the 50% inhibitory concentration (IC50) in data set [1] (setting [3]) is 14100 nM. Besides, the “Clearance of Human microsome” value in data set [2] was determined as 6.15 mL/min/kg.
With `O=c1cc(-c2ccc(C(F)(F)F)cc2O[C@H]2C[C@@H](C(=O)O)C2)oc2c(Cl)ccc(O)c12` [Example B038-A, Cis-3-[2-(8-chloro-5-hydroxy-4-oxo-chromen-2-yl)-5-(trifluoromethyl)phenoxy]cyclobutanecarboxylic acid], the IC50 in data set [1] (setting [3]) turned out to be 1050 nM. Besides, the “Clearance of Human microsome” value in data set [2] is 6.84 mL/min/kg.
The corresponding values for `O=c1cc(-c2ccc(C(F)(F)F)cc2O[C@H]2C[C@H](C(=O)O)C2)oc2c(Cl)ccc(O)c12` [Example B038-B, Trans-3-[2-(8-chloro-5-hydroxy-4-oxo-chromen-2-yl)-5-(trifluoromethyl)phenoxy]cyclobutanecarboxylic acid] are 312 nM and 9.59 mL/min/kg.
The corresponding values for `CCOc1ccc(-c2cc(=O)c3c(O)ccc(Cl)c3o2)c(O[C@H]2C[C@H](C(=O)O)C2)c1` [Example B039-B, Trans-3-[2-(8-chloro-5-hydroxy-4-oxo-chromen-2-yl)-5-ethoxy-phenoxy]cyclobutanecarboxylic acid] are 11500 nM and 6.15 mL/min/kg.
The like results for `Cc1cc(-c2cc(=O)c3c(O)ccc(Cl)c3o2)c(O[C@H]2C[C@H](C(=O)O)C2)cc1Br` [Example B040-B, trans-3-[5-bromo-2-(8-chloro-5-hydroxy-4-oxo-chromen-2-yl)-4-methyl-phenoxy]cyclobutanecarboxylic acid] were, in that order, 2930 nM and 6.29 mL/min/kg.
`O=C(O)CCCOc1cc(C(F)(F)F)ccc1-c1cc(=O)c2c(O)ccc(Cl)c2o1` [Example B041, 4-[2-(8-chloro-5-hydroxy-4-oxo-chromen-2-yl)-5-(trifluoromethyl)phenoxy]butanoic acid]: the IC50 in data set [1] (setting [3]) is 289 nM. Further, the “Clearance of Human microsome” value in data set [2] stood at 6.15 mL/min/kg.
As to `COc1cc(OC2CC(C(=O)O)C2)c(-c2cc(=O)c3c(O)ccc(Cl)c3o2)cc1OC` (centres unmarked) [Example B042, 3-[2-(8-chloro-5-hydroxy-4-oxo-chromen-2-yl)-4,5-dimethoxy-phenoxy]cyclobutanecarboxylic acid], the IC50 in data set [1] (setting [3]) was found to be 865 nM. Further, the “Clearance of Human microsome” value in data set [2] stood at 6.15 mL/min/kg.
Regarding `O=c1cc(-c2ccc(C(F)(F)F)cc2O[C@H]2C[C@@H](C(=O)NS(=O)(=O)C3CC3)C2)oc2c(Cl)cccc12` [Example B043-A, cis-3-[2-(8-chloro-4-oxo-chromen-2-yl)-5-(trifluoromethyl)phenoxy]-N-cyclopropylsulfonyl-cyclobutanecarboxamide], in data set [1] (setting [3]), the IC50 amounted to 1400 nM. Besides, in data set [2], the “Clearance of Human microsome” value is on record as 6.15 mL/min/kg.
